Results from ChEMBL document CHEMBL1201862, “PubChem BioAssay data set” (2004).
“And” between values parts separate entries of the source, which are not always exact repeats. Identical values can stand only once.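 Exposure lasted 48 hours, with cells grown in 96-well plates and compounds tested at five concentrations. Abbreviation: GI50, concentration required for 50% inhibition of growth.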 The source made the active and inactive calls. No stated cut-off is given here; in the data, active = GI50 up to about 1.1 µM and inactive = higher.

Legend:
Experiment in all cases: DTP human tumour cell line panel, 48 h
[1] = tested on: A498
[2] = tested on: CAKI-1
[3] = tested on: EKVX
[4] = tested on: HCT-15
[5] = tested on: HOP-62
[6] = tested on: KM12
[7] = tested on: M14
[8] = tested on: MCF7
[9] = tested on: MOLT-4
[10] = tested on: Malme-3M
[11] = tested on: NCI-H226
[12] = tested on: NCI-H460
[13] = tested on: NCI/ADR-RES
[14] = tested on: OVCAR-3
[15] = tested on: OVCAR-4
[16] = tested on: OVCAR-8
[17] = tested on: SF-295
[18] = tested on: SK-MEL-2
[19] = tested on: U-251
[20] = tested on: M19-MEL

Row | SMILES | GI50 [1] | GI50 [2] | GI50 [3] | GI50 [4] [µM] | GI50 [5] | GI50 [6] | GI50 [7] | GI50 [8] | GI50 [9] | GI50 [10] | GI50 [11] | GI50 [12] | GI50 [13] | GI50 [14] | GI50 [15] | GI50 [16] | GI50 [17] | GI50 [18] | GI50 [19] | GI50 [20]
1 | CN(C)c1ccc(/C=C2\C[C@H]3[C@@H]4CCc5cc(O)ccc5[C@H]4CC[C@]3(C)C2=O)cc1 | 98.2 µM (inactive) | > 100 µM (inactive) | 32.5 µM (inactive) | > 100 | 30.5 µM (inactive) | > 100 µM (inactive) | > 100 µM (inactive) | > 100 µM (inactive) | > 100 µM (inactive) | > 100 µM (inactive) | 25.1 µM (inactive) | > 100 µM (inactive) | > 100 µM (inactive) | > 100 µM (inactive) | > 100 µM (inactive) | 95.1 µM (inactive) | 32.6 µM (inactive) | 35.6 µM (inactive) | 36 µM (inactive) | 
2 | COc1cccc(NC(=O)CC(=O)NNCC(=O)Nc2nnc(-c3ccc(N(CCC#N)S(=O)(=O)c4ccccc4)cc3)s2)c1 |  | > 100 µM (inactive) | 41 µM (inactive) | > 100 | 88.7 µM (inactive) | 63.5 µM (inactive) |  |  | 35.7 µM (inactive) | 40.7 µM (inactive) | > 100 µM (inactive) |  |  | 78.3 µM (inactive) | 65.8 µM (inactive) | > 100 µM (inactive) | 87.1 µM (inactive) | > 100 µM (inactive) | 76.9 µM (inactive) | 44.1 µM (inactive)
3 | CN1CC2(CCCCC2)C(O)C12C=CCCC2 (stereo not drawn) | > 100 µM (inactive) | > 100 µM (inactive) | > 100 µM (inactive) | > 100 | > 100 µM (inactive) | > 100 µM (inactive) | > 100 µM (inactive) |  | > 100 µM (inactive) | > 100 µM (inactive) | > 100 µM (inactive) |  |  | > 100 µM (inactive) |  | > 100 µM (inactive) | > 100 µM (inactive) | > 100 µM (inactive) | > 100 µM (inactive) | > 100 µM (inactive)
4 | COc1ccc(/C(Cl)=C(\C=O)c2ccc(Cl)c(Cl)c2)cc1OC | 15.2 µM (inactive) | 5.08 µM (inactive) | 9.53 µM (inactive) | 4.34 | 16.3 µM (inactive) |  | 7.1 µM (inactive) |  | 2.24 µM (inactive) | 18.3 µM (inactive) | 4.84 µM (inactive) | 3.4 µM (inactive) |  | 13.1 µM (inactive) |  | 4.02 µM (inactive) | 3.79 µM (inactive) | 1.87 µM (inactive) | 4.34 µM (inactive) | 8.11 µM (inactive)
5 | CN1c2ccccc2NC(CC(=O)O)C2CC=CN21 (stereo not drawn) | > 100 µM (inactive) | > 100 µM (inactive) | > 100 µM (inactive) | > 100 | > 100 µM (inactive) | > 100 µM (inactive) | > 100 µM (inactive) |  | > 100 µM (inactive) | > 100 µM (inactive) |  | > 100 µM (inactive) |  | > 100 µM (inactive) | > 100 µM (inactive) | > 100 µM (inactive) | > 100 µM (inactive) | > 100 µM (inactive) | > 100 µM (inactive) | > 100 µM (inactive)
6 | COc1cc(C(C)O)c[n+](Cc2ccccc2)c1 (stereo not drawn) | > 100 µM (inactive) | > 100 µM (inactive) | > 100 µM (inactive) | > 100 | > 100 µM (inactive) | > 100 µM (inactive) | > 100 µM (inactive) |  | > 100 µM (inactive) | > 100 µM (inactive) | > 100 µM (inactive) | > 100 µM (inactive) |  | > 100 µM (inactive) | > 100 µM (inactive) | > 31.6 µM (inactive) | > 100 µM (inactive) | > 100 µM (inactive) | > 100 µM (inactive) | > 100 µM (inactive)
7 | O=C(CC(=O)N1N=C(c2ccccc2)C(/N=N/c2ccc(C(=O)O)cc2)C1=O)Nc1ccc(F)cc1 (stereo not drawn) | 10.6 µM (inactive) | 7.55 µM (inactive) | 30.1 µM (inactive) | 18 |  |  | 38.8 µM (inactive) |  |  | 60.7 µM (inactive) | 6.15 µM (inactive) | 28.7 µM (inactive) |  | 14.3 µM (inactive) | 52 µM (inactive) | 40.8 µM (inactive) | 36.9 µM (inactive) | 17.9 µM (inactive) |  | 74 µM (inactive)
8 | CCOC(=O)C(C)N1C(=O)c2ccccc2S1(=O)=O (stereo not drawn) | > 100 µM (inactive) | > 100 µM (inactive) | > 100 µM (inactive) | > 100 | > 100 µM (inactive) | > 100 µM (inactive) |  | > 100 µM (inactive) | > 100 µM (inactive) | > 100 µM (inactive) | > 100 µM (inactive) | > 100 µM (inactive) | > 100 µM (inactive) | > 100 µM (inactive) | > 100 µM (inactive) | > 100 µM (inactive) | > 100 µM (inactive) | > 100 µM (inactive) | > 100 µM (inactive) | > 100 µM (inactive)
9 | Cc1c2cnccc2c(C)c2c1c1ccccc1n2CCCCCCCl | > 50 µM (inactive) | > 50 µM (inactive) | > 50 µM (inactive) | > 50 | > 50 µM (inactive) | 29.9 µM (inactive) |  | > 50 µM (inactive) | 19.9 µM (inactive) | > 50 µM (inactive) | 22.5 µM (inactive) | 29.4 µM (inactive) | > 46.3 µM (inactive) | 49.7 µM (inactive) | > 10.5 µM (inactive) | 26 µM (inactive) | 48.9 µM (inactive) | > 50 µM (inactive) | 35.1 µM (inactive) | 40 µM (inactive)
10 | CN(C)C(=O)OC1C(=O)N(C)c2ccc(Cl)cc2C2(c3ccccc3)N1C2(Cl)Cl (stereo not drawn) |  | > 100 µM (inactive) | 44.4 µM (inactive) | 60.4 | 54.8 µM (inactive) | 62.1 µM (inactive) | > 100 µM (inactive) |  | 47.9 µM (inactive) | > 100 µM (inactive) | 38.7 µM (inactive) | > 100 µM (inactive) |  | 53.8 µM (inactive) | > 100 µM (inactive) | 95.5 µM (inactive) | 77.1 µM (inactive) | > 100 µM (inactive) | 45.3 µM (inactive) | > 100 µM (inactive)
11 | COc1cc2c3cc1Oc1c(OC)c(OC)cc4c1C(Cc1ccc(cc1)Oc1cc(ccc1O)CC3N(C)CC2)N(C)CC4 (stereo not drawn) | 16.1 µM (inactive) | 14.3 µM (inactive) and 16.9 µM (inactive) | 24.9 µM (inactive) and 13.1 µM (inactive) |  | 18.1 µM (inactive) | 11.9 µM (inactive) and 11.4 µM (inactive) | 1.87 µM (inactive) and 2 µM (inactive) | 6.44 µM (inactive) | 4.41 µM (inactive) and 5.09 µM (inactive) | 7.01 µM (inactive) and 14 µM (inactive) | 16.8 µM (inactive) and 18.9 µM (inactive) |  | 19.3 µM (inactive) | 13.6 µM (inactive) and 15.8 µM (inactive) | 12.4 µM (inactive) and 14.1 µM (inactive) |  |  | 12.9 µM (inactive) and 8.69 µM (inactive) | 11.2 µM (inactive) and 9.08 µM (inactive) | 11.9 µM (inactive)
12 | CCNc1nnc(-c2nsc3ccccc23)s1 |  |  | 51.9 µM (inactive) | > 100 | 33.7 µM (inactive) | 59.7 µM (inactive) | > 100 µM (inactive) |  | > 100 µM (inactive) |  |  | 33.2 µM (inactive) |  | 17.8 µM (inactive) | 86.5 µM (inactive) | 57.8 µM (inactive) |  | > 100 µM (inactive) | 31.3 µM (inactive) | > 100 µM (inactive)
13 | CCCCCCCC/C=C\CCCCCCCCCCCC(=O)O [ERUCIC ACID] | 0.891 µM (active) | 42 µM (inactive) | 34 µM (inactive) | 43.7 | 30.1 µM (inactive) | 22.3 µM (inactive) |  | 14.9 µM (inactive) | 37.3 µM (inactive) | 47.9 µM (inactive) | 52.4 µM (inactive) | 7.48 µM (inactive) | 86.3 µM (inactive) | 17.8 µM (inactive) | 30.8 µM (inactive) | 37.2 µM (inactive) | 35.3 µM (inactive) | 18 µM (inactive) | 37.9 µM (inactive) | 26.2 µM (inactive)
